Results on 2 compounds are retold here after patent publication US8877234B2, “Preservatives” (Clariant Finance (BVI) Limited, priority 2005, dated 2014).

The conditions of data set [1]: O/W emulsions and W/O emulsions; 0.5% by weight; cited from earlier work.
The conditions of data set [2]: cited from earlier work.
The next data set deals with Aspergillus niger. In words: Minimum inhibitory concentration (MIC), agar dilution method, DIN 58940. The class given is cell-based. As to the method:
(§1) The MIC values were determined in accordance with DIN 58940 by the agar dilution method.
Background: Agar dilution tests growth on a series of plates holding different concentrations.

The test system of the next data set is Candida albicans. The description is as above. The class given is cell-based. As to the method: as §1
For a further data set, the system named is Staphyloccus aureus. The data set is described as above. Format: cell-based. As to the method:
as §1

The next data set deals with Pseudomonas aeruginosa. Described as above. Format: cell-based. As to the method:
as §1

As to `Cc1cc(CC(C)CC(C)(C)C)n(O)c(=O)c1.NCCO` (centres unmarked) [Octopirox ®, 2-aminoethanol salt of 1-hydroxy-4-methyl-6-(2,4,4-trimethylpentyl)-2(1H)-pyridone], the antimicrobial activity result in data set [1] is “inadequate”. For the same compound, the solubility in oil entry in data set [2] is “no more than moderate solubility”. For the same compound, the solubility in water entry in data set [2] was “low solubility”. The MIC in % against Aspergillus niger is recorded as 0.004%; against Candida albicans, 0.004%; with Staphyloccus aureus, 0.002%; against Pseudomonas aeruginosa, 0.016%.

On to `OCCOc1ccccc1` [PE, 2-phenoxyethanol], for which the MIC in % turned out to be 0.25% in the data set on Aspergillus niger, 0.5% against Candida albicans, 0.25% in the data set on Staphyloccus aureus and 0.5% against Pseudomonas aeruginosa.
